A short description of test [1]: Inhibition of HCV genotype 2a JFH1 NS5B RNA dependent RNA polymerase infected in human HuH7 replicon cells after 3 days by luciferase reporter gene assay. On the technique in general: In antiviral work, replicon cells carry a viral genome segment that copies itself.
The nature of test [2]: Inhibition of HCV genotype 1a NS5B RNA dependent RNA polymerase infected in human HuH7 replicon cells after 3 days by luciferase reporter gene assay.
Test [3] in a line: Inhibition of HCV genotype 1b NS5B RNA dependent RNA polymerase C316N mutant infected in human HuH7 replicon cells after 3 days by luciferase reporter gene assay.
Test [4] is described as follows: Inhibition of HCV genotype 1b NS5B RNA dependent RNA polymerase infected in human HuH7 replicon cells after 3 days by luciferase reporter gene assay.

In general, pEC50 refers to the negative decadic logarithm of the EC50, by convention in mol/L. A high value points to a small EC50.

The structures appear in SMILES notation. pEC50: −log10 of the molar value.

Regarding `CCNc1cc2oc(-c3ccc(F)cc3)c(C(=O)NC)c2cc1-c1ccc(OC)c(C(=O)NC2(c3ncccn3)CC2)c1`, the pEC50 in test [1] is 7.92; in test [2], 8.64; in test [3] it was 8.44; in test [4], 8.92.

In test [1], `CCN(C(=O)C(F)(F)F)c1cc2oc(-c3ccc(F)cc3)c(C(=O)NC)c2cc1-c1ccc(OC)c(C(=O)NC2(c3ncccn3)CC2)c1` gave a negative-log EC50 (pEC50) of 7.70.

Take `CNC(=O)c1c(-c2ccc(F)cc2)oc2ccc(-c3cccc(C(=O)NC4(c5ccccn5)CC4)c3)cc12`: the pEC50 is 6.29 in test [1], 7.44 in test [2], 7.12 in test [3] and 8.42 in test [4].

Turning to `CNC(=O)c1c(-c2ccc(F)cc2)oc2cc(N(CCO)S(C)(=O)=O)c(-c3cccc(C(=O)NC4(c5ccccn5)CC4)c3)cc12`, the negative logarithm of the EC50 (pEC50) in test [1] is 7.66; in test [2], 7.46; in test [3], 6.41; in test [4], 7.28.

In the case of `CNC(=O)c1c(-c2ccc(F)cc2)oc2cc(N(CCO)S(C)(=O)=O)c(-c3cccc(C(=O)NC4(c5ccccc5)CC4)c3)cc12`, the negative-log EC50 (pEC50) is 8.07 in test [1], 8.24 in test [2], 7.19 in test [3] and 8.21 in test [4].

In the case of `CCN(c1cc2oc(-c3ccc(F)cc3)c(C(=O)NC)c2cc1-c1cccc(C(=O)NC2(c3ncccn3)CC2)c1)S(C)(=O)=O`, the pEC50 was 8.27 in test [1], 8.11 in test [2], 7.36 in test [3] and 8.06 in test [4].

With `CCN(c1cc2oc(-c3ccc(F)cc3)c(C(=O)NC)c2cc1-c1ccc(OC)c(C(=O)NC2(c3ncccn3)CC2)c1)S(C)(=O)=O`, the negative-log EC50 (pEC50) in test [1] was 7.89.

Take `CCN(C(=O)OC)c1cc2oc(-c3ccc(F)cc3)c(C(=O)NC)c2cc1-c1ccc(OC)c(C(=O)NC2(c3ncccn3)CC2)c1`: the negative-log EC50 (pEC50) in test [1] is 7.82.

In test [1], `CCN(C(C)=O)c1cc2oc(-c3ccc(F)cc3)c(C(=O)NC)c2cc1-c1ccc(OC)c(C(=O)NC2(c3ncccn3)CC2)c1` showed a negative logarithm of the EC50 (pEC50) of 7.46.

Compound `CCN(c1cc2oc(-c3ccc(F)cc3)c(C(=O)NC)c2cc1-c1cc(Cl)c(OC)c(C(=O)NC2(c3ncccn3)CC2)c1)S(C)(=O)=O` showed a negative-log EC50 (pEC50) in test [1] of 8.18.

`CCN(c1cc2oc(-c3ccc(F)cc3)c(C(=O)NC)c2cc1-c1cc(F)c(F)c(C(=O)NC2(c3ncccn3)CC2)c1)S(C)(=O)=O` showed a negative logarithm of the EC50 (pEC50) in test [1] of 8.05.

With `CCN(c1cc2oc(-c3ccc(F)cc3)c(C(=O)NC)c2cc1-c1cc(C)c(OC)c(C(=O)NC2(c3ncccn3)CC2)c1)S(C)(=O)=O`, the negative logarithm of the EC50 (pEC50) in test [1] was 7.80.

In test [1], `CCN(C(=O)N(C)C)c1cc2oc(-c3ccc(F)cc3)c(C(=O)NC)c2cc1-c1ccc(OC)c(C(=O)NC2(c3ncccn3)CC2)c1` showed a pEC50 of 6.78.

With `CCN(c1cc2oc(-c3ccc(F)cc3)c(C(=O)NC)c2cc1-c1cc(F)c(OC)c(C(=O)NC2(c3ncccn3)CC2)c1)S(C)(=O)=O`, the pEC50 in test [1] is 8.06.
